Test results published in US20130150399A1, “INHIBITORS OF THE UNFOLDED PROTEIN RESPONSE AND METHODS FOR THEIR USE” (The Board of Trustees of the Leland Stanford Junior …, priority 2006, published 2013).

What was measured:
Grp78 = experiment: Western immunoblot of Grp78, HT1080 cells; assay type: cell-based, human; conditions: irestatin 9389 2.5 μM, 16 hours (also 24 or 36 hours)
Description: (§1) Cells (2×10^6) were cultured in 10-cm dishes, collected using a cell scraper at 4° C., and lysed by addition of 150 μl cell lysis buffer [50 mM Tris pH 7.4, 150 mM NaCl, 10% glycerol, 0.5% Triton X-100. 0.5% NP-40, 2 mM Na3VO4, 20 mM beta-glycerophosphate, 10 mM NaF, 1 mM DTT, 1 mM PMSF). Lysates were centrifuged for 5 min at 10,000×g, and proteins (˜40 μg) were resolved by SDS-PAGE followed by semi-dry transfer to nitrocellulose membranes. Membranes were blocked in TBS-5% milk supplemented with 0.1% Tween-20. The blots were then probed overnight with relevant antibodies, washed, and incubated for 2 hours with species-specific secondary antibodies conjugated to horseradish peroxidase. After washing in block solution, immunoreactive material was detected by enhanced chemiluminescence (SuperSignal West Dura Extended, Pierce, Inc., Rockville, Ill.).
(§2) HT1080 cells were exposed to DMSO vehicle (lane 1), irestatin 9389 (2.5 μM; lane 2) for 16 hours or Tm (5 μg/ml; lane 3) for 8 hours. Following treatments, cells were harvested, lysed, and analyzed by immunoblotting using anti-Grp78 antibody (top) or anti-actin (bottom) as a loading control. […] Cell lysates were analyzed by Western immunoblotting using anti-IRE1α (bottom) or anti-phospho-IRE1α antibodies (top). […] Lysates were analyzed by Western blot using antisera specific for phospho-JNK1 (top) or total JNK1 (bottom). […]

[1] = Potential toxicities of irestatin 9389, increasing i.p. doses; assay type: in vivo
Description: Female 4-6 week-old SCID (B6.CB 17) mice supplied by Stanford University Animal Facility were housed in the same facility (American Association of Laboratory Animal Care-approved) with 12 hour light cycles. Food and water were provided ad libitum. All experiments were approved by the institutional care and use committee. The potential toxicities of irestatin 9389 were examined in SCID mice injected i.p. once daily over 4 consecutive days with increasing doses of irestatin 9389 or vehicle control. […] For xenografts, 2×10^6 HT1080 fibrosarcoma cells were resuspended in 50-75 μl PBS and injected s.c. in the dorsal flanks of host mice. When the implanted tumors reached a mean volume of ˜150 mm^3, mice were randomly assigned into different treatment groups. Mice were dosed by i.p. bolus injection with either vehicle (50% DMSO, 20% cremophor EL, 30% ethanol) or irestatin 9389 (50 mg/kg). Tumors (6-8 per group) were measured every 2-4 days with calipers. Tumor volume was calculated using the formula [(W^2×L) 0.52] where W=width and L=length.

[2] = Blood chemistry, complete blood count and histopathology; assay type: in vivo, mice
Description: Complete blood counts (CBC's) and clinical chemistry panels were performed on blood obtained by cardiac puncture after euthanasia with CO2 Gross necropsies were performed, all major viscera were harvested, fixed in 10% buffered neutral formalin, routinely processed for paraffin embedding, and stained with hematoxylin and eosin (H&E). Sections were analyzed by a board-certified veterinary pathologist (DMB). […]

IRE1α = experiment: Western immunoblot of total IRE1α, HT1080 cells; assay type: cell-based, human; conditions: 2.5 μM, 16 hours
Description: as §1, §2

[3] = irestatin-treated nude mice, terminal cardiac blood draw, mean

For `Cc1csc(NC(=O)CSc2nc3c(c(C(F)(F)F)c2C#N)CCC3)n1` [Compound 9389], the Grp78 levels (Grp78) was “no effect on Grp78 levels”, the toxicity ([1]; dosing regimen of 50-60 mg/kg i.p.) was “without apparent toxicity” and the “dosing regimen of 50-60 mg/kg as share of the LD50 value” ([1]; female, SCID (B6.CB 17), mouse, in vivo, 4 days) was 75%. The “tolerability (kidney, liver, bone marrow function)” value ([2]; 3-4 doses of 50 mg/kg every other day) was “well tolerated”, the “fasting blood glucose levels versus vehicle” value ([2]; irestatin- and vehicle-treated animals) was “no significant difference in fasting blood glucose levels” and the ALT [2, 3] was 29.4 IU/L. For the same compound, the AST [2, 3] was 117.775 IU/L, the “Anion Gap” value [2, 3] was 17.975 mM and the “Carbon Dioxide” value [2, 3] was 25.075 mM. It also gave a Chloride [2, 3] of 116.75 mM, a Cholesterol [2, 3] of 102 mg/dL and a Glucose [2, 3] of 124.5 mg/dL. It also gave an HCT [2, 3] of 47%, an HGB [2, 3] of 14.625 gm/dL and a Na/K Ratio [2, 3] of 20.3. The Platelets [2, 3] was 805.5 K/uL, the Potassium [2, 3] was 7.5175 mM and the RBC [2, 3] was 10.375 M/uL. The Sodium [2, 3] was 152.25 mM, the “Total Bilirubin” value [2, 3] was 0.3 mg/dL and the WBC [2, 3] was 5.19 K/uL. For the same compound, the “histopathological analysis of all major organs” value ([2]; three doses, 50 mg/kg) was “no significant differences between the vehicle and irestatin treatment groups” and the “total level of IRE1α” value (IRE1α) was “no significant changes in the total level of IRE1α”.
